Reference: ChEMBL document CHEMBL6087485, “Novel 3-Sulfonamide Dual-Tail Pyrrol-2-one Bridged Molecules as Potent Human Carbonic Anhydrase Isoform Inhibitors: Design, Synthesis, Molecular Modeling Investigation, and Anticancer Activity in MeWo, SK-BR-3, and MG-63 Cell Lines” (J Med Chem, 2025)
Activity calls are given as the source filed them. No cut-off for these calls is given here.

Experiments:
[1] = target: Carbonic anhydrase 9 (Homo sapiens, UniProt Q16790); assay: Inhibition of recombinant human CA-IX incubated for 15 mins by phenol red dye based stopped-flow CO2 hydration assay
[2] = system: MeWo; assay: Cytotoxicity against human MeWo cells at 10 uM incubated for 24 hrs by MTS assay; type: functional, cell-based
[3] = system: SK-BR-3; assay: Cytotoxicity against human SK-BR-3 cells at 10 uM incubated for 24 hrs by MTS assay; type: functional, cell-based
[4] = system: MG-63; assay: Cytotoxicity against human MG-63 cells at 10 uM incubated for 24 hrs by MTS assay; type: functional, cell-based
[5] = Cytotoxicity against human HGF cells at 10 uM incubated for 24 hrs by MTS assay; type: toxicity, cell-based
[6] = system: MeWo; assay: Cytotoxicity against human MeWo cells at 50 uM incubated for 24 hrs by MTS assay; type: functional, cell-based
[7] = system: SK-BR-3; assay: Cytotoxicity against human SK-BR-3 cells at 50 uM incubated for 24 hrs by MTS assay; type: functional, cell-based
[8] = system: MG-63; assay: Cytotoxicity against human MG-63 cells at 50 uM incubated for 24 hrs by MTS assay; type: functional, cell-based
[9] = Cytotoxicity against human HGF cells at 50 uM incubated for 24 hrs by MTS assay; type: toxicity, cell-based
[10] = Cytotoxicity against human HGF cells assessed as inhibition of cell viability incubated for 24 hrs by MTS assay; type: toxicity, cell-based
[11] = system: MeWo; assay: Cytotoxicity against human MeWo cells assessed as inhibition of cell viability incubated for 24 hrs by MTS assay; type: functional, cell-based
[12] = Synergistic cytotoxicity against human HGF cells assessed as inhibition of cell viability incubated for 24 hrs in presence of DOX by MTS assay; type: toxicity, cell-based
[13] = system: MeWo; assay: Synergistic cytotoxicity against human MeWo cells assessed as inhibition of cell viability incubated for 24 hrs in presence of DOX by MTS assay; type: functional, cell-based
[14] = system: MeWo; assay: Synergistic cytotoxicity against human MeWo cells assessed as inhibition of cell viability at 10 uM incubated for 24 hrs in presence of DOX by MTS assay; type: functional, cell-based
[15] = Synergistic cytotoxicity against human HGF cells assessed as cell viability at 10 uM incubated for 24 hrs in presence of DOX by MTS assay relative to control; type: toxicity, cell-based; details: read-out: Activity

SMILES	Ki [1] [nM]	Activity [2]	Activity [3]	Activity [4]	Activity [5]	further results
COc1ccc(C2C=C(Nc3cccc(S(N)(=O)=O)c3)C(=O)N2c2cccc(S(N)(=O)=O)c2)cc1OC (stereo unspecified)	87.2					
CCCCc1ccc(C2C=C(Nc3cccc(S(N)(=O)=O)c3)C(=O)N2c2cccc(S(N)(=O)=O)c2)cc1 (stereo unspecified)	564	inactive	inactive	inactive	Non-toxic	Activity [6]: Active; Activity [7]: Active; Activity [8]: Active; Activity [9]: Toxic
COc1ccc(O)c(C2C=C(Nc3cccc(S(N)(=O)=O)c3)C(=O)N2c2cccc(S(N)(=O)=O)c2)c1 (stereo unspecified)	52.4					
NS(=O)(=O)c1cccc(NC2=CC(c3ccc(F)cc3)N(c3cccc(S(N)(=O)=O)c3)C2=O)c1 (stereo unspecified)	50.1	inactive	inactive	inactive	Non-toxic	IC50 at 24 h [10]: 85800 nM; IC50 [11]: 68600 nM; IC50 at 24 h [12]: 19600 nM; IC50 [13]: 11200 nM; Activity [14]: Active; viability at 24 h, 10 µM [15]: > 70%
NS(=O)(=O)c1cccc(NC2=CC(c3cc(C(F)(F)F)cc(C(F)(F)F)c3)N(c3cccc(S(N)(=O)=O)c3)C2=O)c1 (stereo unspecified)	539					
COc1cccc(C2C=C(Nc3cccc(S(N)(=O)=O)c3)C(=O)N2c2cccc(S(N)(=O)=O)c2)c1O (stereo unspecified)	7	inactive	inactive	inactive	Non-toxic	IC50 at 24 h [10]: 70700 nM; IC50 [11]: 63300 nM; IC50 at 24 h [12]: 27500 nM; IC50 [13]: 11300 nM; Activity [14]: Active; viability at 24 h, 10 µM [15]: > 70%
COc1ccc(C2C=C(Nc3cccc(S(N)(=O)=O)c3)C(=O)N2c2cccc(S(N)(=O)=O)c2)cc1O (stereo unspecified)	95.1	inactive	inactive	inactive	Non-toxic	
N#Cc1ccc(C2C=C(Nc3cccc(S(N)(=O)=O)c3)C(=O)N2c2cccc(S(N)(=O)=O)c2)cc1 (stereo unspecified)	345					
COc1cc(C2C=C(Nc3cccc(S(N)(=O)=O)c3)C(=O)N2c2cccc(S(N)(=O)=O)c2)ccc1O (stereo unspecified)	369					
NS(=O)(=O)c1cccc(NC2=CC(c3ccccc3)N(c3cccc(S(N)(=O)=O)c3)C2=O)c1 (stereo unspecified)	58					
NS(=O)(=O)c1cccc(NC2=CC(c3ccc(C(F)(F)F)cc3)N(c3cccc(S(N)(=O)=O)c3)C2=O)c1 (stereo unspecified)	831					
NS(=O)(=O)c1cccc(NC2=CC(c3ccco3)N(c3cccc(S(N)(=O)=O)c3)C2=O)c1 (stereo unspecified)	79.9					
NS(=O)(=O)c1cccc(NC2=CC(c3ccc(Br)cc3)N(c3cccc(S(N)(=O)=O)c3)C2=O)c1 (stereo unspecified)	386					
COc1ccccc1C1C=C(Nc2cccc(S(N)(=O)=O)c2)C(=O)N1c1cccc(S(N)(=O)=O)c1 (stereo unspecified)	93.8					
NS(=O)(=O)c1cccc(NC2=CC(c3ccc4c(c3)OCO4)N(c3cccc(S(N)(=O)=O)c3)C2=O)c1 (stereo unspecified)	443					
COc1cc(C2C=C(Nc3cccc(S(N)(=O)=O)c3)C(=O)N2c2cccc(S(N)(=O)=O)c2)cc(OC)c1O (stereo unspecified)	30.3	inactive	inactive	inactive	Non-toxic	
NS(=O)(=O)c1cccc(NC2=CC(c3ccccc3O)N(c3cccc(S(N)(=O)=O)c3)C2=O)c1 (stereo unspecified)	345	inactive	inactive	inactive	Non-toxic	Activity [6]: Active; Activity [9]: Non-toxic; IC50 at 24 h [10]: 117000 nM; IC50 [11]: 94300 nM; IC50 at 24 h [12]: 36400 nM; IC50 [13]: 12300 nM; Activity [14]: Active; viability at 24 h, 10 µM [15]: > 70%
CC(C)c1ccc(C2C=C(Nc3cccc(S(N)(=O)=O)c3)C(=O)N2c2cccc(S(N)(=O)=O)c2)cc1 (stereo unspecified)	615					
